Measured values from PubChem BioAssay AID1963963 (Molecular Pharmacology Branch, DTP, NCI, 2024).

System: 958667-338-R-J2-PDC tumor spheroids viability
Assay: Anticancer human tumor 958667-338-R-J2-PDC patient-derived colon adenocarcinoma cell line growth inhibition [PI3K]
Settings: spheroids with HUVEC and MSC; for IC50: curve of first compound; for viability, T/C: stronger effect = lower value
Summary of the method: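 Multi-cell spheroids combine tumor cells with HUVEC and human MSCs, treated with targeted agents alone or with inavolisib, alpelisib, duvelisib or copanlisib. Concentrations fall in half-log steps from at or near clinical Cmax, or from 10 microM where Cmax is unknown; viability read-out.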

[1] = second compound 0.0316 µM, first compound 0.0316 µM
[2] = second compound 0.0316 µM, first compound 0.1 µM
[3] = second compound 0.0316 µM, first compound 0.316 µM
[4] = second compound 0.0316 µM, first compound 1 µM
[5] = second compound 0.0316 µM, first compound 3.16 µM
[6] = second compound 0.0316 µM, first compound 10 µM
[7] = second compound 0.1 µM, first compound 0.0316 µM
[8] = second compound 0.1 µM, first compound 0.1 µM
[9] = second compound 0.1 µM, first compound 0.316 µM
[10] = second compound 0.1 µM, first compound 1 µM
[11] = second compound 0.1 µM, first compound 3.16 µM
[12] = second compound 0.1 µM, first compound 10 µM
[13] = second compound 0.316 µM, first compound 0.0316 µM
[14] = second compound 0.316 µM, first compound 0.1 µM
[15] = second compound 0.316 µM, first compound 0.316 µM
[16] = second compound 0.316 µM, first compound 1 µM
[17] = second compound 0.316 µM, first compound 3.16 µM
[18] = second compound 0.316 µM, first compound 10 µM
[19] = second compound 1 µM, first compound 0.0316 µM
[20] = second compound 1 µM, first compound 0.1 µM
[21] = second compound 1 µM, first compound 0.316 µM
[22] = second compound 1 µM, first compound 1 µM
[23] = second compound 1 µM, first compound 3.16 µM
[24] = second compound 1 µM, first compound 10 µM
[25] = second compound 3.16 µM, first compound 0.0316 µM
[26] = second compound 3.16 µM, first compound 0.1 µM
[27] = second compound 3.16 µM, first compound 0.316 µM
[28] = second compound 3.16 µM, first compound 1 µM
[29] = second compound 3.16 µM, first compound 3.16 µM
[30] = second compound 3.16 µM, first compound 10 µM
[31] = second compound 10 µM, first compound 0.0316 µM
[32] = second compound 10 µM, first compound 0.1 µM
[33] = second compound 10 µM, first compound 0.316 µM
[34] = second compound 10 µM, first compound 1 µM
[35] = second compound 10 µM, first compound 3.16 µM
[36] = second compound 10 µM, first compound 10 µM
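Also: spheroids exposed to compounds for seven days before readout.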

`C#Cc1c(F)ccc2cc(O)cc(-c3ncc4c(N5CC6CCC(C5)N6)nc(OCC56CCCN5CC(F)C6)nc4c3F)c12` (centres undefined) + Cc1nc(NC(=O)N2CCCC2C(N)=O)sc1-c1ccnc(C(C)(C)C(F)(F)F)c1 was tested, and the IC50 (second compound 0.0316 µM) was > 10 µM, the IC50 (second compound 0.1 µM) was > 10 µM and the IC50 (second compound 0.316 µM) was > 10 µM. It also gave an IC50 (second compound 1 µM) of 4.15 µM, an IC50 (second compound 3.16 µM) of 1.79 µM and an IC50 (second compound 10 µM) of 0.368 µM. The viability, T/C [1] was 82.9%, the viability, T/C [2] was 83.3% and the viability, T/C [3] was 79.5%. For the same molecule, the viability, T/C [4] was 95.8%, the viability, T/C [5] was 67.7% and the viability, T/C [6] was 70.6%. The viability, T/C [7] was 70.9%, the viability, T/C [8] was 79.6% and the viability, T/C [9] was 93.5%. For the same molecule, the viability, T/C [10] was 87.1%, the viability, T/C [11] was 76.8% and the viability, T/C [12] was 57.3%. For the same molecule, the viability, T/C [13] was 93.9%, the viability, T/C [14] was 109% and the viability, T/C [15] was 69%. For the same molecule, the viability, T/C [16] was 56.2%, the viability, T/C [17] was 82.1% and the viability, T/C [18] was 52.5%. It also gave a viability, T/C [19] of 82.8%, a viability, T/C [20] of 82.6% and a viability, T/C [21] of 67.3%. The viability, T/C [22] was 65.7%, the viability, T/C [23] was 52% and the viability, T/C [24] was 41.4%. It also gave a viability, T/C [25] of 72.1%, a viability, T/C [26] of 59.9% and a viability, T/C [27] of 75.2%. For the same molecule, the viability, T/C [28] was 50.2%, the viability, T/C [29] was 46.1% and the viability, T/C [30] was 29.4%. It also gave a viability, T/C [31] of 60.1%, a viability, T/C [32] of 47.5% and a viability, T/C [33] of 43.9%. It also gave a viability, T/C [34] of 49.6%, a viability, T/C [35] of 34.1% and a viability, T/C [36] of 1.14%.

Molecule `CC1(C)CCC(Nc2ncc(C(F)(F)F)c(-c3c[nH]c4c(P(C)(C)=O)c(C#N)ccc34)n2)CN1` (centres undefined) + Cc1nc(NC(=O)N2CCCC2C(N)=O)sc1-c1ccnc(C(C)(C)C(F)(F)F)c1 has an IC50 (second compound 0.0316 µM) of 6.39 µM, an IC50 (second compound 0.1 µM) of 4.53 µM and an IC50 (second compound 0.316 µM) of 4.09 µM. It also gave an IC50 (second compound 1 µM) of 3.33 µM, an IC50 (second compound 3.16 µM) of 2.58 µM and an IC50 (second compound 10 µM) of 1.04 µM. For the same molecule, the viability, T/C [1] was 108%, the viability, T/C [2] was 136% and the viability, T/C [3] was 84%. For the same molecule, the viability, T/C [4] was 72.4%, the viability, T/C [5] was 71.4% and the viability, T/C [6] was 39%. It also gave a viability, T/C [7] of 140%, a viability, T/C [8] of 112% and a viability, T/C [9] of 83.5%. For the same molecule, the viability, T/C [10] was 72.2%, the viability, T/C [11] was 55.9% and the viability, T/C [12] was 40.3%. The viability, T/C [13] was 119%, the viability, T/C [14] was 79.5% and the viability, T/C [15] was 96.2%. The viability, T/C [16] was 59.4%, the viability, T/C [17] was 67.1% and the viability, T/C [18] was 30.9%. For the same molecule, the viability, T/C [19] was 103%, the viability, T/C [20] was 82% and the viability, T/C [21] was 86.5%. The viability, T/C [22] was 67.6%, the viability, T/C [23] was 55.2% and the viability, T/C [24] was 22.8%. It also gave a viability, T/C [25] of 80.5%, a viability, T/C [26] of 83.9% and a viability, T/C [27] of 73.5%. For the same molecule, the viability, T/C [28] was 55.3%, the viability, T/C [29] was 52.6% and the viability, T/C [30] was 25.2%. It also gave a viability, T/C [31] of 77.5%, a viability, T/C [32] of 63.2% and a viability, T/C [33] of 45.5%. For the same molecule, the viability, T/C [34] was 57.1%, the viability, T/C [35] was 44.3% and the viability, T/C [36] was 14.5%.
